According to article PMC12633732, “Dynamics of release and activity of select neuropeptides post-bloodmeal in the female mosquito, Aedes aegypti” (The Journal of Experimental Biology, 2025):
Like-named read-outs stand apart in the source and are kept apart here. Bridge positions count the residues as written; N and C are the ends. Square brackets hold non-standard residues; d marks the D form. Ends that are not written are not given here. Peptide text beside a SMILES is read from it. pGlu = O=C1CC[C@@H](C(=O)O)N1

Legend:
[1] = biological target: AedaeDH31-R; assay: Heterologous receptor functional activation bioluminescence assay, AedaeDH31-R; type: cell-based, Aedes aegypti; details: for EC50: CHO-K1-aeq cells transiently expressing AedaeDH31-R (pBudCE4.1 Gα15), aequorin luminescence over 20 s, peptides tested up to 10 µmol l^−1, read-out: EC50 on DH31-R
Text: (§1) Gene-specific primers were designed to amplify the open reading frame of the AedaeDH31 receptor and Aedaekinin receptor based on previously published sequences [GenBank accession numbers: DH31-R, AAGE02017873 ([Kwon et al., 2012]); kinin-R, AY596453.1 ([Lu et al., 2011]); see Table 1]. The amplified PCR products were purified using a Monarch PCR purification kit (New England Biolabs, Whitby, ON, Canada) and reamplified using modified primers containing restriction sites for subsequent directional cloning in mammalian expression plasmids. Products were A-tailed and cloned into a pGEM-T Easy vector (Promega, Madison, WI, USA) or pCE2 TA/Blunt-Zero vector (GeneBio Systems, Burlington, ON, Canada) and then transformed into 5-alpha high efficiency competent E. coli (New England Biolabs, Whitby, ON, Canada). Base accuracy of purified plasmid DNA miniprep was confirmed by Sanger sequencing (The Centre for Applied Genomics, Sick Kids, Toronto, ON, Canada). The receptor constructs DH31-R and kinin-R were excised using standard restriction enzyme digestion and subcloned into the mammalian expression vectors, pBudCE4.1 Gα15 or pcDNA3.1^+ (Life Technologies, Burlington, ON, Canada), with the former containing a mammalian promiscuous G protein (Gα15), which facilitates coupling of a wide variety of GPCRs to calcium signaling ([Wahedi et al., 2019]). The previously characterized A. aegypti CAPA receptor inserted into pcDNA3.1^+ ([Sajadi et al., 2020]) was also used for transfection of mammalian cells. Plasmid DNA was purified from overnight bacterial cultures using the ZymoPURE II Plasmid Midiprep Kit (Zymo Research, Tustin, CA, USA) following manufacturer guidelines. These three heterologously expressed receptors were used to determine the timing of release and quantify the levels in the haemolymph of CAPA (both CAPA-1 and CAPA-2), DH31 along with kinin neuropeptides in association with blood feeding by adult female mosquitoes.
(§2) Functional activation of the AedaeDH31-R, AedaeCAPA-R, and Aedaekinin-R was assayed using a previously established recombinant Chinese hamster ovary (CHO)-K1 cell line stably expressing aequorin, referred to henceforth as CHO-K1-aeq cells ([Paluzzi et al., 2012a]; [Wahedi and Paluzzi, 2018]). […] Cells were grown and maintained in Dulbecco's modified eagles medium:nutrient F12 (DMEM:F12; 1:1) medium containing 10% heat-inactivated fetal bovine serum (FBS; Wisent, St. Bruno, QC, Canada), 1× antimycotic-antibiotic and 200 µg ml^−1 geneticin (G418 Sulfate). […] Approximately 48 h post-transfection, cells were dislodged from the culture flasks using 5 mmol l^−1 ethylenediaminetetraacetic acid (EDTA; Life Technologies, Burlington, ON, Canada) in DPBS and cells were resuspended in BSA medium (DMEM-F12 medium containing 0.1% bovine serum albumin, 1X antimycotic-antibiotic) at a concentration of 10^6–10^7 cells ml^−1 quantified using a Countess II FL cell counter (Thermo Fisher Scientific, Burlington, ON, Canada). Coelenterazine h (Promega, Madison, WI, USA) was added to the cells to a final concentration of 5 µmol l^−1 and incubated for 3 h, as described previously ([Oryan et al., 2018]) and subsequently, diluted 10-fold in BSA medium and incubated for an additional hour at room temperature. To measure in vivo circulating levels of DH31, kinin and CAPA in female mosquitoes, diluted haemolymph samples collected in 70 µl DPBS droplets (see section 3.2) were loaded in duplicates into 96-well white luminescence plates (Greiner Bio-One, Germany).

[2] = biological target: T1, Aedaekinin-R (Aedes aegypti, UniProt Q5EY37); assay: Heterologous receptor functional activation bioluminescence assay, Aedaekinin-R; type: cell-based
T1 sequence (Q5EY37 1-584): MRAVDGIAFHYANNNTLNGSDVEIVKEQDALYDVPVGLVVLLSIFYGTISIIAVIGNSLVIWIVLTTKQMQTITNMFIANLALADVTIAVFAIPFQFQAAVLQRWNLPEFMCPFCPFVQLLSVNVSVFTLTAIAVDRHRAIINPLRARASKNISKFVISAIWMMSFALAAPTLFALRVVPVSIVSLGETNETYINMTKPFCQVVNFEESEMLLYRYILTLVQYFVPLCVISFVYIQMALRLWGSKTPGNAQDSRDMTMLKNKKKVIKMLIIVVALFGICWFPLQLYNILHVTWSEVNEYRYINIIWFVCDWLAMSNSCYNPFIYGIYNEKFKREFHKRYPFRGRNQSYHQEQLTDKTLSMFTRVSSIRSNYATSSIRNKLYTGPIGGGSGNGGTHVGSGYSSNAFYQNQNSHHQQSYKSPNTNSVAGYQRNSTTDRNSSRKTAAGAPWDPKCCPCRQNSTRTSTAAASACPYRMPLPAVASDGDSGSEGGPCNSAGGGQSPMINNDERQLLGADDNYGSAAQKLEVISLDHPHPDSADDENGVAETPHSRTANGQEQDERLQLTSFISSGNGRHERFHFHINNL
Text: as §1, §2

[3] = test system: Malpighian tubules (MTs) of adult female A. aegypti; parameters: species or system Aedes aegypti; details: for Effect of single diuretic on fluid secretion: 25 nmol l^−1 DH31, 100 nmol l^−1 5HT, 10 nmol l^−1 DH44, 50 nmol l^−1 CDP, 60 min, Fig. 5A
Description: In order to determine fluid secretion rates, modified Ramsay assays were performed as described previously ([Lajevardi et al., 2021]; [Sajadi et al., 2018]). Female adults (4–7 days old) were dissected under physiological Aedes saline adapted from [Petzel et al. (1987)] that contained (in mmol l^−1): 150 NaCl, 25 Hepes, 3.4 KCl, 7.5 NaOH, 1.8 NaHCO3, 1 MgSO4, 1.7 CaCl2 and 5 glucose, and titrated to pH 7.1. Individual MTs were removed and placed in a Sylgard-lined Petri dish containing 20 µl bathing droplets [1:1 mixture of Schneider's Insect Medium (Sigma-Aldrich, Oakville, ON, Canada): Aedes saline], immersed in hydrated mineral oil to prevent evaporation. The proximal end of each tubule was wrapped around a minutien pin to allow for fluid secretion measurements. Dose response analysis for AedaeDH31 was determined by using concentrations ranging from 10^−5 to 10^−12 mol l^−1 on unstimulated MTs. To investigate the effects of collected haemolymph samples on fluid secretion rate, haemolymph samples from both non-blood-fed and blood-fed females were used against unstimulated MTs and allowed to incubate for 60 min before measurement of secreted fluid droplets. To investigate potential additive or synergistic activity, dosages of 25 nmol l^−1 AedaeDH31, 10 nmol l^−1 Rhodnius prolixus DH (CRF-related peptide, DH44), 50 nmol l^−1 CDP, 100 nmol l^−1 5HT, and 1 fmol l^−1 AedaeCAPA-1 were used ([Sajadi et al., 2018], [2020]).

[4] = biological target: T2, AedaeCAPA-R (Aedes aegypti, UniProt A0A7D5D2Z2); assay: cell-based
T2 sequence (A0A7D5D2Z2 1-712): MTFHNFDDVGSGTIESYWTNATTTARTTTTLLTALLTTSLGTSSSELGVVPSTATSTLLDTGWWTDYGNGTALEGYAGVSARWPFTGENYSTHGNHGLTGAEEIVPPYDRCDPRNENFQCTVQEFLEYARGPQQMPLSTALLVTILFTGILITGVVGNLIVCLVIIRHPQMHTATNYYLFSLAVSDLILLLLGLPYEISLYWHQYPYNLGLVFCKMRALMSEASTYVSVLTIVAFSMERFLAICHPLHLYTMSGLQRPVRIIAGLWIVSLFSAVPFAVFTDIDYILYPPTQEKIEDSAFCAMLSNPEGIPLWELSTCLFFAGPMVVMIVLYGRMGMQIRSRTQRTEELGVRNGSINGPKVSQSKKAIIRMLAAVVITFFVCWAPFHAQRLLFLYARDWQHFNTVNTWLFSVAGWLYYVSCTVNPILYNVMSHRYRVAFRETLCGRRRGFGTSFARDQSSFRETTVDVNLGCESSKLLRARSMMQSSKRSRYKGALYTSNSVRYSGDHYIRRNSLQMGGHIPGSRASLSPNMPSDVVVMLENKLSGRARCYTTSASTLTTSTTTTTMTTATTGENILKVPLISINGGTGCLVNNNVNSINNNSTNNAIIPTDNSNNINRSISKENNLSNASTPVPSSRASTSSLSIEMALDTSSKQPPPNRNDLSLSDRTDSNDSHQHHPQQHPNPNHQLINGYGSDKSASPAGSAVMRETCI
Text: Gene-specific primers were designed to amplify the open reading frame of the AedaeDH31 receptor and Aedaekinin receptor based on previously published sequences [GenBank accession numbers: DH31-R, AAGE02017873 ([Kwon et al., 2012]); kinin-R, AY596453.1 ([Lu et al., 2011]); see Table 1]. The amplified PCR products were purified using a Monarch PCR purification kit (New England Biolabs, Whitby, ON, Canada) and reamplified using modified primers containing restriction sites for subsequent directional cloning in mammalian expression plasmids. […] These three heterologously expressed receptors were used to determine the timing of release and quantify the levels in the haemolymph of CAPA (both CAPA-1 and CAPA-2), DH31 along with kinin neuropeptides in association with blood feeding by adult female mosquitoes.
Functional activation of the AedaeDH31-R, AedaeCAPA-R, and Aedaekinin-R was assayed using a previously established recombinant Chinese hamster ovary (CHO)-K1 cell line stably expressing aequorin, referred to henceforth as CHO-K1-aeq cells ([Paluzzi et al., 2012a]; [Wahedi and Paluzzi, 2018]). […] To measure in vivo circulating levels of DH31, kinin and CAPA in female mosquitoes, diluted haemolymph samples collected in 70 µl DPBS droplets (see section 3.2) were loaded in duplicates into 96-well white luminescence plates (Greiner Bio-One, Germany).

[5] = CHO-K1-aeq cells transiently expressing Aedaekinin-R (pcDNA3.1+), aequorin luminescence over 20 s, peptides tested up to 10 µmol l^−1, read-out: EC50 on kinin-R

Compound | EC50 [1] [µM] | EC50 [2, 5] [µM] | further results
CC(C)C[C@@H]1NC(=O)[C@@H](NC(=O)CNC(=O)CNC(=O)[C@@H](N)CCCCN)CSSC[C@@H](C(=O)N[C@@H](Cc2c[nH]c3ccccc23)C(=O)NCC(=O)NCC(=O)N[C@@H](Cc2c[nH]cn2)C(N)=O)NC(=O)[C@H](CO)NC(=O)[C@H](Cc2c[nH]cn2)NC(=O)CNC(=O)[C@H](Cc2ccc(O)cc2)NC(=O)[C@H](CO)NC1=O [CCHa1] (H-KGGCLSYGHSCWGGH-NH2; disulfide 4-11 (inferred); N-terminus assumed) | > 10 |  | 
CC(C)C[C@H](NC(=O)[C@@H]1CCC(=O)N1)C(=O)N[C@H](C(=O)N[C@@H](Cc1ccccc1)C(=O)N[C@H](C(=O)N1CCC[C@H]1C(=O)N[C@@H](CO)C(=O)N[C@@H](Cc1c[nH]c2ccccc12)C(N)=O)[C@@H](C)O)[C@@H](C)O [AKH] ([pGlu]LTFTPSW-NH2) | > 10 |  | EC50 [2]: > 10 µM
C[C@@H]1NC(=O)[C@H](C)NC(=O)[C@@H](NC(=O)CN)CSSC[C@@H](C(=O)N[C@@H](Cc2ccc(O)cc2)C(=O)NCC(=O)NCC(=O)N[C@@H](Cc2c[nH]cn2)C(N)=O)NC(=O)[C@H](C)NC(=O)[C@H](Cc2c[nH]cn2)NC(=O)CNC(=O)[C@H](Cc2ccccc2)NC1=O [CCHa2] (H-GCAAFGHACYGGH-NH2; disulfide 2-9 (inferred); N-terminus assumed) | > 10 |  | 
PVFFVASRY-NH2 [RYa-1] | > 10 | > 10 | 
NCCc1c[nH]c2ccc(O)cc12 [5HT, 5-hydroxytryptamine] |  |  | Effect of single diuretic on fluid secretion [3]: significantly increased fluid secretion
GPTVGLFAFPRV-NH2 [CAPA1] |  | > 10 | EC50 [4]: 0.00183 µM
MQRPQGPSLSVANPIEVLRSRLLLEIARRRMKEQDASRVSKNRQYLQQI-NH2 [DH44] | > 10 | > 10 | Luminescence response over background on AedaeDH31-R ([1]; 10^−6 mol l^−1 dose, Fig. 1B, n=3): no detectable activity; Effect of single diuretic on fluid secretion [3]: significantly increased fluid secretion
NPFHSWG-NH2 [CDP] |  | 0.0115 | 
CC(C)[C@H](NC(=O)[C@@H]1CCC(=O)N1)C(=O)N[C@H](C(=O)N[C@@H](Cc1ccccc1)C(=O)N[C@@H](CO)C(=O)N[C@@H](CCCNC(=N)N)C(=O)N[C@@H](CC(=O)O)C(=O)N[C@@H](Cc1c[nH]c2ccccc12)C(=O)N[C@@H](CC(N)=O)C(=O)N[C@@H](C)C(N)=O)[C@@H](C)O [ACP] ([pGlu]VTFSRDWNA-NH2) | > 10 |  | EC50 [2]: > 10 µM
AGNSGANSGMWFGPRL-NH2 [PK1] | > 10 | > 10 | 
CSCC[C@H](NC(=O)[C@H](CC(N)=O)NC(=O)[C@@H]1CSSC[C@H](NC(=O)[C@H](CC(C)C)NC(=O)[C@H](CO)NC(=O)[C@H](CCSC)NC(=O)[C@@H](N)Cc2ccc(O)cc2)C(=O)N[C@@H](Cc2c[nH]cn2)C(=O)N[C@@H](Cc2ccccc2)C(=O)N[C@@H](CCCCN)C(=O)N[C@@H](CC(C)C)C(=O)N1)C(N)=O [CNMa] (H-YMSLCHFKLCNM-NH2; disulfide 5-10 (inferred); N-terminus assumed) | > 10 |  | 
TVDFGLSRGYSGAQEAKHRMAMAVANFAGGP-NH2 [DH31] |  | > 10 | EC50 [3]: 0.0136 µM
